Patent publication US20080096831A1, “Stabilized azithromycin composition” (priority 2003, published 2008)

Test: Impurity analysis of azithromycin monohydrate granules by HPLC after storage at 50° C. for 8 days
Format: physicochemical
Conditions: results of Table 1
Procedure: Wet granules prepared according to the procedure set forth in Example 1 were placed on a tray which was placed in an oven at 55° C. Six samples were taken at different times and the moisture content was determined using an OHAUS Balance. The water/moisture content of each sample varied from 3.3-12.5 wt %, based on the total weight of the granules. The samples were stored in glass bottles, sealed, and placed in an oven at 50° C. After 8 days, the samples were removed from the oven and the amount and type of impurities was determined by high performance liquid chromatography (HPLC).
Sample solutions were freshly prepared from azithromycin monohydrate and injected on column. The percentages of impurities was calculated from the integrator output. The performance of the HPLC system was tested using standardized solutions of azithromycin monohydrate.
Three impurities were identified and measured as a percentage of the total azithromycin monohydrate in each sample.

With `CC[C@H]1OC(=O)[C@H](C)[C@@H](O[C@H]2C[C@@](C)(OC)[C@@H](O)[C@H](C)O2)[C@H](C)[C@@H](O[C@@H]2O[C@H](C)C[C@H](N(C)C)[C@H]2O)[C@](C)(O)C[C@@H](C)CN(C)[C@H](C)[C@@H](O)[C@]1(C)O` (relative stereo) [azithromycin monohydrate, [2R-(2R*,3S*,4R*,5R*,8R*, 10R*, 11R*, 12S*, 13S*, 14R*)]-13-[(2,6-dideoxy-3-C-methyl-3-β-methyl-α-L-ribo-hexopyranosyl)oxy]-2-ethyl-3,4,10-trihydroxy-3,5,6,8,10,12,14-heptamethyl-11-[[3,4,6-trideoxy-3-(dimethylamino)-β-D-xylo-hexopyranosyl]oxy]-1-oxa-6-azacyclopentadecan-15-one monohydrate] the “water content range in which chemical stability is good” value was 5.5-12.4 wt %.
